Molecular target: T1, isocitrate lyase (ICL) (Salmonella enterica, UniProt P51066)
T1 sequence (P51066 1-434): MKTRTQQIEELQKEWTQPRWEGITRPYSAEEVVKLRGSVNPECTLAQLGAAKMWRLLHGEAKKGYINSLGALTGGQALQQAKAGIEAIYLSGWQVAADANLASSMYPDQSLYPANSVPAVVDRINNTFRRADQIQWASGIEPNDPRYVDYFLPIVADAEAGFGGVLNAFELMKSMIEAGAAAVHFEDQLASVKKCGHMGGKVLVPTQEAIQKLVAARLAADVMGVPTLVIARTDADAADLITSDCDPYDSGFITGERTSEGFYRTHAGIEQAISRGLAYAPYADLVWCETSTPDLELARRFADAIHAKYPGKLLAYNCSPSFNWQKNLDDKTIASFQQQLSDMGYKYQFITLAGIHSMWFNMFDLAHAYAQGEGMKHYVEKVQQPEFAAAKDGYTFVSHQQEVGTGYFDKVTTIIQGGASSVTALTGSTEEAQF
Assay: enzyme activity assay of purified ICL
Assay type: biochemical

C=C(CC(=O)O)C(=O)O [ITA, itaconate]
IC50: ~2600 µM

Reference: publication PMC8098682 (Chemical Science, 2021)
